Experimental data taken from article PMC3113701 (Nature communications, 2010).
Values after ≈ are worked out from the molar mass of the structure shown. “Also recorded” adds a separate entry of the source. Like-named read-outs stand apart in the source and are kept apart here. Values belong to the molecule of their own block, whether it stands above or below them.

What was measured:
NR1/NR2D receptors [1] = target: T1, NR1/NR2D receptors (Rattus norvegicus, UniProt Q62645); test: Two-electrode voltage-clamp, recombinant NR1/NR2D in Xenopus oocytes; type: cell-based; conditions: for Slope: Control (no CIQ)
T1 sequence (Q62645 28-1323, other chains not shown): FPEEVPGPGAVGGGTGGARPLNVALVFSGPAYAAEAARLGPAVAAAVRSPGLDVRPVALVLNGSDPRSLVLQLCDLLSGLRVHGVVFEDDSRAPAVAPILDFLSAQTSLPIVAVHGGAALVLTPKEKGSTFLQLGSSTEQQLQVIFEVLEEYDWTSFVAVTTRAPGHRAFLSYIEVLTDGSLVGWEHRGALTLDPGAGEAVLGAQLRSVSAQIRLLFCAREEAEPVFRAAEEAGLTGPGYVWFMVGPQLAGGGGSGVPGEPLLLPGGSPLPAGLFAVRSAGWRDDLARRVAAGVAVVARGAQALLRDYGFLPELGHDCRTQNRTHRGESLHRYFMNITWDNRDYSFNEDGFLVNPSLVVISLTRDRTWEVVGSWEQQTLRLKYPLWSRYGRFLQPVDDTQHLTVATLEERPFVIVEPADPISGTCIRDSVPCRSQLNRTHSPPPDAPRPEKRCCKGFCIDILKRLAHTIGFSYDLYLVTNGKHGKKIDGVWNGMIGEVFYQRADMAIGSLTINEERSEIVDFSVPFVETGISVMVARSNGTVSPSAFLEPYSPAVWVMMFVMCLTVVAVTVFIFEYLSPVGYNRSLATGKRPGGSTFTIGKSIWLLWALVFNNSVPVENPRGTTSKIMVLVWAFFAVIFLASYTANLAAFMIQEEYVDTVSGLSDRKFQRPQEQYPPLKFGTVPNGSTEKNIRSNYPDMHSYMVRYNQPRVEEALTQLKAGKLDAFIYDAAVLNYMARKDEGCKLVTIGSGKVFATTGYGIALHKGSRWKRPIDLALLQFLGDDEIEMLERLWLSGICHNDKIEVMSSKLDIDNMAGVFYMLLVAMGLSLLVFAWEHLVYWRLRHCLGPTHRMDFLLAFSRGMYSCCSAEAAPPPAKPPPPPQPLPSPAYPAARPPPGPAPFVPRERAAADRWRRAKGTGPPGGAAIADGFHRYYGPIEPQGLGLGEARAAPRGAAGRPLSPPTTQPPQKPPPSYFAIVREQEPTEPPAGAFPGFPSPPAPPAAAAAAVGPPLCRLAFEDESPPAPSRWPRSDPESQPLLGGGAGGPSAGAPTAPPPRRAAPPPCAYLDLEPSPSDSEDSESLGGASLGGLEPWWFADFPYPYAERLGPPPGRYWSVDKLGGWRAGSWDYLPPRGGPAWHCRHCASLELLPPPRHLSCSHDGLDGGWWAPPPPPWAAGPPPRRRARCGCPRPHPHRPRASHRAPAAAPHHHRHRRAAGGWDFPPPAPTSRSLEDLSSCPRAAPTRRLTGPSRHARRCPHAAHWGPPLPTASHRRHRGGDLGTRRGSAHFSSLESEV

[2] = system: native NMDA receptors in CA1 hippocampal pyramidal neurons; type: cell-based, rat; conditions: 20 μM CIQ; pressure-applied NMDA and glycine
NR1/NR2A receptors [3] = test: Whole-cell voltage-clamp, NR1/NR2A in HEK 293 cells; type: cell-based, rat; conditions: concentration-effect relationship
AMPA (GluR1) receptor = test: Two-electrode voltage-clamp, AMPA receptor GluR1 in oocytes; type: cell-based; conditions: 10 μM CIQ, 100 μM glutamate
NR1/NR2B receptors [4] = test: Whole-cell voltage-clamp, NR1/NR2B in HEK 293 cells; type: cell-based, rat; conditions: 20 μM CIQ
NR1/NR2C receptors [5] = target: T2, NR1/NR2C receptors (Rattus norvegicus, UniProt Q00961); test: Two-electrode voltage-clamp, recombinant NR1/NR2C in Xenopus oocytes; type: cell-based; conditions: for Slope: Control (no CIQ)
T2 sequence (Q00961 20-1237, other chains not shown): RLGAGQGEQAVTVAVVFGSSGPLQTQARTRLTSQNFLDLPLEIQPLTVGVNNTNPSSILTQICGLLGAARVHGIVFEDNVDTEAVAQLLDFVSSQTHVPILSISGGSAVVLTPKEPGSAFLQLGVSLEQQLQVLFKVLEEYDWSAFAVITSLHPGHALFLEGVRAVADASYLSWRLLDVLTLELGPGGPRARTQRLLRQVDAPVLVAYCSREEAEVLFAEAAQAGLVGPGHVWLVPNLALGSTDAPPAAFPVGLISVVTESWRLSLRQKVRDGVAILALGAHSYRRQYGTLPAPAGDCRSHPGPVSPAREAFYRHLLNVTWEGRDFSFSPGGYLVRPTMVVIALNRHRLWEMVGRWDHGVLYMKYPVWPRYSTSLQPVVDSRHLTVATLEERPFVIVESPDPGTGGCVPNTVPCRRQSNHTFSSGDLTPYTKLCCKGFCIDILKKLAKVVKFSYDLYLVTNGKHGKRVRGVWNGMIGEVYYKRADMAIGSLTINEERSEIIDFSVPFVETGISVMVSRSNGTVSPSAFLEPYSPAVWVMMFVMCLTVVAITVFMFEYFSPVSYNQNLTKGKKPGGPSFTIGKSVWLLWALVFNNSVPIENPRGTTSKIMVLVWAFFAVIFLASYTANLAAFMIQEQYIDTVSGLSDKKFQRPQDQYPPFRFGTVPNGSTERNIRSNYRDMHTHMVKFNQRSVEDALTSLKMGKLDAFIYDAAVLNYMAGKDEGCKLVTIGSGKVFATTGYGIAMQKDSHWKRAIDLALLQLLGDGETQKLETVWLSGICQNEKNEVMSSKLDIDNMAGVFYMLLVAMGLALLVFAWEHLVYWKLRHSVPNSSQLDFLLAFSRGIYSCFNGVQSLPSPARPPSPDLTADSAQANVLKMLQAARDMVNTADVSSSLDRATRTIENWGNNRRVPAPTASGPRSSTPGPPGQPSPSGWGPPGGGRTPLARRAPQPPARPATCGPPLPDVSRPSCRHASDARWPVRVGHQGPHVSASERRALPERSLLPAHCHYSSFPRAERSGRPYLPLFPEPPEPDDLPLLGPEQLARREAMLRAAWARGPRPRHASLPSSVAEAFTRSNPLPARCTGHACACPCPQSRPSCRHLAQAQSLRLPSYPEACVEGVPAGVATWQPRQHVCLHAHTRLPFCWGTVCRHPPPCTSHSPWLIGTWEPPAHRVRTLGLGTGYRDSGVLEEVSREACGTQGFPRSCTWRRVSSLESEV

NR1/NR2D receptors [6] = target: T1, NR1/NR2D receptors; test: Whole-cell voltage-clamp, NR1/NR2D in HEK 293 cells; type: cell-based
[7] = system: NR1/NR2A*/NR2C triheteromeric receptors; test: Triheteromeric NMDA receptors in oocytes, NR1/NR2A*/NR2C; conditions: 10 μM CIQ; 10 mM glutamate, 100 μM glycine, 1 mM Mg2+
kainate (GluR6) receptor = test: Two-electrode voltage-clamp, kainate receptor GluR6 in oocytes; type: cell-based; conditions: 10 μM CIQ; 100 μM glutamate; concanavalin-A pretreated oocytes
GluR2 receptor = test: Two-electrode voltage-clamp, GluR2 in oocytes; type: cell-based; conditions: 10 μM CIQ, 100 μM glutamate
NR1/NR2D receptors [8] = target: T1, NR1/NR2D receptors; test: Single channel recording, outside-out patches with NR1/NR2D; type: cell-based; conditions: 10 μM CIQ
[9] = system: native NMDA receptors in subthalamic neurons; type: cell-based, rat
NR1/NR2B receptors [10] = test: Two-electrode voltage-clamp, recombinant NR1/NR2B in Xenopus oocytes; type: cell-based, rat
[11] = system: NMDA receptors containing the NR2C or NR2D subunit; test: Potentiation of NR2C- or NR2D-containing NMDA receptors; type: cell-based; conditions: read-out: EC50 for enhancement of receptor responses; abstract summary value
[12] = system: 2D-(2A L) chimeric receptor; test: Oocyte recording of chimera 2D-; type: cell-based, rat; conditions: oocytes
NR1/NR2A receptors [13] = test: Two-electrode voltage-clamp, recombinant NR1/NR2A in Xenopus oocytes; type: cell-based, rat
NR1/NR2A* receptors = test: Oocyte recording of NR1/NR2A*; conditions: oocytes; triheteromeric recording conditions
[14] = system: NR2A-(2D L+M1e) chimeric receptor; test: Oocyte recording of chimera NR2A-; type: cell-based, rat; conditions: 10 μM CIQ plus 100 μM glutamate and 30 μM glycine
[15] = system: NR2A(I567T) with linker (L) between NR2D ATD and S1; test: Oocyte recording of NR2A; type: cell-based, rat; conditions: 10 μM CIQ; oocytes
[16] = system: NR1/NR2A*/NR2B triheteromeric receptors; test: Triheteromeric NMDA receptors in oocytes, NR1/NR2A*/NR2B; conditions: 10 μM CIQ; 10 mM glutamate, 100 μM glycine, 1 mM Mg2+
[17] = system: 2A-(2D L+S1M1b) chimeric receptor; test: Oocyte recording of chimera 2A-; type: cell-based, rat; conditions: 10 μM CIQ plus 100 μM glutamate and 30 μM glycine
[18] = system: NR2A with ATD-S1 linker (L) of NR2D; test: Oocyte recording of NR2A with NR2D ATD-S1 linker; type: cell-based, rat; conditions: oocytes
[19] = Maximum solubility by nephelometer; type: physicochemical; conditions: kinetic from dmso stock
GluR3 receptor = test: Two-electrode voltage-clamp, GluR3 in oocytes; type: cell-based; conditions: 10 μM CIQ, 100 μM glutamate
[20] = system: 2D-(2A ATD+L) chimeric receptor; test: Oocyte recording of chimera 2D-; type: cell-based, rat; conditions: oocytes
GluR4 receptor = test: Two-electrode voltage-clamp, GluR4 in oocytes; type: cell-based; conditions: 10 μM CIQ, 100 μM glutamate
NR1/NR2D(T592I) = test: Oocyte recording of mutant NR1/NR2D; type: cell-based, rat; conditions: oocytes
[21] = system: 2A-(2D L+S1M1c) chimeric receptor; test: Oocyte recording of chimera 2A-; type: cell-based, rat; conditions: 10 μM CIQ plus 100 μM glutamate and 30 μM glycine
GluR5 receptor = test: Two-electrode voltage-clamp, GluR5 in oocytes; type: cell-based; conditions: 10 μM CIQ; 100 μM glutamate; concanavalin-A pretreated oocytes
[22] = system: NR1/NR2A*/NR2D triheteromeric receptors; test: Triheteromeric NMDA receptors in oocytes, NR1/NR2A*/NR2D; conditions: 10 μM CIQ; 10 mM glutamate, 100 μM glycine, 1 mM Mg2+
NR1/NR2C receptors [23] = target: T2, NR1/NR2C receptors; test: Whole-cell voltage-clamp, NR1/NR2C in HEK 293 cells; type: cell-based
NR1/NR2C receptors [24] = target: NR1/NR2C receptors (Rattus norvegicus, UniProt P35439+Q00961); test: as above; type: cell-based
Sequence of NR1/NR2C receptors (Rattus norvegicus, UniProt P35439+Q00961) (Q00961 20-1237, other chains not shown): as above

[25] = system: NR2A with residues 590-594 of NR2D; test: Oocyte recording of NR2A with NR2D residues 590-594 alone; type: cell-based, rat; conditions: oocytes
[26] = system: 2A-(2D L+S1M1) chimeric receptor; test: Oocyte recording of chimera 2A-; type: cell-based, rat; conditions: 10 μM CIQ plus 100 μM glutamate and 30 μM glycine
[27] = system: 2A-(2D L+S1M1M2M3S2) chimeric receptor; test: Oocyte recording of chimera 2A-; type: cell-based, rat; conditions: 10 μM CIQ plus 100 μM glutamate and 30 μM glycine
[28] = 10 μM CIQ plus 100 μM glutamate and 30 μM glycine
[29] = 10 μM CIQ in 100 μM glutamate and 30 μM glycine, HEK 293, 23°C
[30] = HEK 293 cells, single exponential
[31] = following pre-application of CIQ, HEK 293
[32] = read-out: agonist EC50, + 20 μM CIQ
[33] = read-out: agonist EC50, Control (no CIQ)

response in the presence of CIQ vs control (NR1/NR2D receptors [1]; [28]): significantly different than in control
potentiation of NMDA-activated response (NR1/NR2D receptors [1]; 100 μM NMDA and 30 μM glycine): 205 ± 5%
effect of CIQ alone (no agonist) (NR1/NR2D receptors [1]; CIQ alone): no effect
potentiation of receptor response, % of control (NR1/NR2D receptors [1]; CIQ dissolved in 2-hydroxypropyl-beta-cyclodextrin solution (1% w/v), no DMSO): 144 ± 3 % of control
maximal potentiation (NR1/NR2D receptors [1]; response without CIQ = 100%): 211 ± 7%
response in the presence of CIQ vs control (NR1/NR2C receptors [5]; [28]): significantly different than in control
potentiation of NMDA-activated response (NR1/NR2C receptors [5]; 100 μM NMDA and 30 μM glycine): 233 ± 13%
effect of CIQ alone (no agonist) (NR1/NR2C receptors [5]; CIQ alone): no effect
maximal potentiation (NR1/NR2C receptors [5]; response without CIQ = 100%): 197 ± 20%
response compared to control (NR1/NR2D receptors [6]; [29]): 180%
potentiation of response to NMDA at 33°C (NR1/NR2D receptors [6]; 10 μM CIQ, 33°C, HEK 293 cells): 200±20%
maximal potentiation (NR1/NR2D receptors [6]; HEK 293 cells): 180%
de-potentiation time constant tau (NR1/NR2D receptors [6]; [30]): 6.5 ± 0.7 s
10-90% rise time of receptor response (NR1/NR2D receptors [6]; [31]): 15 ± 2 ms
effect on triheteromeric receptor response [7]: significantly potentiated
effect on receptor response (GluR2 receptor): not significantly different than control
effect on the reversal potential (NR1/NR2D receptors [8]): no detectable effect
mean shut time, % of control (NR1/NR2D receptors [8]): 75 ± 8 % of control
closed duration area, component 1 (NR1/NR2D receptors [8]; composite of 6 patches): 37
closed duration area, component 2 (NR1/NR2D receptors [8]; composite of 6 patches): 18
closed duration area, component 3 (NR1/NR2D receptors [8]; composite of 6 patches): 12
closed duration area, component 4 (NR1/NR2D receptors [8]; composite of 6 patches): 18
closed duration area, component 5 (NR1/NR2D receptors [8]; composite of 6 patches): 15
closed duration area, component 6 (NR1/NR2D receptors [8]; composite of 6 patches): 0.75
closed duration time constant, component 1 (NR1/NR2D receptors [8]; composite of 6 patches): 0.026 ms
closed duration time constant, component 2 (NR1/NR2D receptors [8]; composite of 6 patches): 0.23 ms
closed duration time constant, component 3 (NR1/NR2D receptors [8]; composite of 6 patches): 0.73 ms
closed duration time constant, component 4 (NR1/NR2D receptors [8]; composite of 6 patches): 3.4 ms
closed duration time constant, component 5 (NR1/NR2D receptors [8]; composite of 6 patches): 12 ms
closed duration time constant, component 6 (NR1/NR2D receptors [8]; composite of 6 patches): 39 ms
open period time constant 1, composite distribution (NR1/NR2D receptors [8]; composite of 6 patches): 0.036 ms
open period time constant 2, composite distribution (NR1/NR2D receptors [8]; composite of 6 patches): 0.63 ms
potentiation of NMDA-activated response (NR1/NR2B receptors [10]; 100 μM NMDA plus 30 μM glycine): did not potentiate
EC50 [11]: 3 µM
change of CIQ potentiation vs NR2D [12]: did not significantly alter
potentiation of NMDA-activated response (NR1/NR2A receptors [13]; 100 μM NMDA plus 30 μM glycine): did not potentiate
CIQ sensitivity of chimeric receptor [17]: CIQ sensitivity is observed
CIQ activity at chimeric receptor [18]: did not show any activity
solubility [19]: 20 µM (≈ 9.36 µg/mL)
effect on receptor response (GluR3 receptor): not significantly different than control
effect on receptor response (GluR4 receptor): not significantly different than control
CIQ sensitivity of chimeric receptor [21]: CIQ sensitivity is observed
effect on receptor response (GluR5 receptor): not significantly different than control
effect on triheteromeric receptor response [22]: significantly potentiated
response compared to control (NR1/NR2C receptors [23]; [29]): 180%
maximal potentiation (NR1/NR2C receptors [23]; HEK 293 cells): 180%
de-potentiation time constant tau (NR1/NR2C receptors [23]; [30]): 4.0 ± 0.7 s
10-90% rise time of receptor response (NR1/NR2C receptors [23]; [31]): 9 ± 1 ms
EC50 (NR1/NR2C receptors [24]): 1.7 µM
CIQ activity at chimeric receptor [25]: did not show any activity
CIQ sensitivity of chimeric receptor [26]: CIQ sensitivity is observed
CIQ sensitivity of chimeric receptor [27]: CIQ sensitivity is observed
Structure (SMILES): COc1ccc(OCC2c3cc(OC)c(OC)cc3CCN2C(=O)c2cccc(Cl)c2)cc1 (stereo not drawn) [CIQ, (3-chlorophenyl)(6,7-dimethoxy-1-((4-methoxyphenoxy)methyl)-3,4-dihydroisoquinolin-2(1H)-yl)methanone]
potentiation of NMDA-activated responses [2]: did not potentiate
effect on receptor response (NR1/NR2A receptors [3]): no effect
effect on receptor response (AMPA (GluR1) receptor): did not alter; also recorded: not significantly different than control
reduction in the response (NR1/NR2B receptors [4]): 25%
effect on receptor response (kainate (GluR6) receptor): did not alter; also recorded: not significantly different than control
potentiation of NMDA-activated responses compared to control ([9]; 20 μM CIQ bath applied, −60 mV, 0.2 mM Mg2+): 230 ± 29%
NMDA-activated response after wash, of control amplitude ([9]; after washout of 20 μM CIQ): 102 ± 11%
effect on receptor response (NR1/NR2B receptors [10]; 10 μM CIQ): did not alter; also recorded: without affecting
effect on receptor response (NR1/NR2A receptors [13]; 10 μM CIQ): did not alter; also recorded: without affecting
effect on receptor response (NR1/NR2A* receptors): no detectable effect; also recorded: not potentiated
CIQ sensitivity of chimeric receptor [14]: potentiated; also recorded: CIQ sensitivity is observed
potentiation of mutant receptor response [15]: 135 ± 5%
effect on triheteromeric receptor response [16]: not potentiated; also recorded: no effect
change of CIQ potentiation vs NR2D [20]: attenuated; also recorded: reduced level of potentiation
CIQ potentiation of mutant receptor (NR1/NR2D(T592I)): completely abolished; also recorded: no longer potentiated

Structure (SMILES): N[C@@H](CCC(=O)O)C(=O)O [Glutamate, reference compound]
Slope (NR1/NR2D receptors [1]): 1.5
EC50 (NR1/NR2D receptors [1]; [32]): 0.24 ± 0.02 µM
EC50 (NR1/NR2D receptors [1]; [33]): 0.3 ± 0.03 µM
Slope (NR1/NR2C receptors [5]): 1.5
EC50 (NR1/NR2C receptors [5]; [32]): 0.62 ± 0.04 µM
EC50 (NR1/NR2C receptors [5]; [33]): 0.74 ± 0.06 µM

Structure (SMILES): NCC(=O)O [Glycine, reference compound]
Slope (NR1/NR2D receptors [1]): 1.5
Slope (NR1/NR2C receptors [5]): 1.5
